By AC50 is commonly meant the concentration at which the activity in the assay is half-maximal.

For one assay, the target named is Beta-galactosidase (Escherichia coli, UniProt Q8VNN2). The assay can be described thus: Dose response counterscreen for EBI2 assay utilizing the enzyme, b-galactosidase. It is filed as functional.
In assay [1] the test system is Streptococcus sp. 'group A'. The assay can be described thus: growth inhibition of control SK(-) GAS strain, dose response, counter-screen for streptokinase expression inhibitor project, luminescence, kanamycin, BacTiterGlo, confirmation (AID 1900). It is filed as functional, organism-based.
Another assay concerns the target T1, Streptokinase A (Streptococcus pyogenes serotype M1, UniProt P10520).
T1 sequence (P10520 whole entry): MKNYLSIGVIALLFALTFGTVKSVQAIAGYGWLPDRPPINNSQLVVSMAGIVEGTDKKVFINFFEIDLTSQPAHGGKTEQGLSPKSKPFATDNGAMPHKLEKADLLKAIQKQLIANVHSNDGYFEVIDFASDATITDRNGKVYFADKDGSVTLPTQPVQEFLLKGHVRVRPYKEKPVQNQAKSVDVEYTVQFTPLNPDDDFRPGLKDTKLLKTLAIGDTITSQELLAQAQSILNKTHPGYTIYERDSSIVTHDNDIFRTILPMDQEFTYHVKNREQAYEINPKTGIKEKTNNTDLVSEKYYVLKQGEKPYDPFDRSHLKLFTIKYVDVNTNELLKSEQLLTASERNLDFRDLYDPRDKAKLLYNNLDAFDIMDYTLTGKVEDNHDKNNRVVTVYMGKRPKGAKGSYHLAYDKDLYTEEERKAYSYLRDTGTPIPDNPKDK
As to the kind of experiment: S. pyogenes streptokinase expression inhibitors, potency, dose response, plasminogen activation absorbance, OD405 (AID 1914).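 Note: secreted streptokinase activity via plasminogen activation per viability signal from cell pellet.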 Format: functional, Streptococcus pyogenes M1 GAS.

For assay [2], the target named is Matrix metalloproteinase-14 (Homo sapiens, UniProt P50281). The assay can be described thus: Dose Response confirmation of uHTS hits for a small molecule inhibitors of MT1-MMP activation in a fluorescence assay set 1. Format: functional.
A further assay concerns Streptococcus. As to the kind of experiment: Group A Streptococcus viability loss, dose response, counter-screen for streptokinase expression inhibitor project, luminescence, BacTiterGlo (AID 1915).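 Note: potency for reduction of bacterial viability or growth.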 It is filed as functional, organism-based. For orientation: Counterscreens check selectivity or assay interference.
Assay [3] has as its target Tyrosine-protein phosphatase non-receptor type 5 (Homo sapiens, UniProt P54829). As to the kind of experiment: STEP phosphatase inhibitors, confirmation, biochemical, fluorescence intensity, uHTS hits (AID 602372). It is filed as functional. The note with it: read-out: IC50_Mean.
Assay [4] addresses Tyrosine-protein phosphatase non-receptor type 11 (Homo sapiens, UniProt Q06124). The assay can be described thus: SHP2 phosphatase inhibition, dose response, selectivity assay for STEP inhibitor project, biochemical (AID 602367). It is filed as functional. The conditions noted are these: read-out: IC50_Mean.
Assay [5] addresses Dual specificity protein phosphatase 3 (Homo sapiens, UniProt P51452). As to the kind of experiment: VHR phosphatase inhibition, dose response, selectivity assay for STEP inhibitor project, biochemical (AID 602374). It is filed as functional. The note with it: read-out: IC50_Mean.
Assay [6] has as its target T2, Interleukin-8 (Homo sapiens, UniProt P10145). As to the kind of experiment: Dose Response confirmation of uHTS small molecule hits for cystic fibrosis induced NFkb Inhibitors in a PAF-induced IL8 counterscreen. The conditions noted are these: read-out: IC50_Mean. It is filed as functional.
The next assay concerns HEK293. As to the kind of experiment: inhibitors of LMP1-driven NF-kB reporter, dose response, cell-based, HEK293, luciferase, cherry-pick (AID 588343). Format: functional. The note with it: Homo sapiens.
Assay [7] deals with T2, Interleukin-8. As to the kind of experiment: Dose Response confirmation of uHTS small molecule hits for cystic fibrosis induced NFkb Inhibitors in a TNFa-induced IL8 counterscreen. Format: functional. The conditions noted are these: read-out: IC50_Mean.
Assay [8] addresses Botulinum neurotoxin type F (Clostridium botulinum, UniProt P30996). As to the kind of experiment: High-throughput multiplex microsphere dose response for inhibitors of toxin protease, specifically Botulinum neurotoxin light chain F protease, compounds from Cherry Pick 02. Format: functional. The conditions noted are these: read-out: EC50_MICROM.
Assay [9] addresses T3, Endoribonuclease toxin MazF (Escherichia coli K-12, UniProt P0AE70).
T3 sequence (P0AE70 whole entry): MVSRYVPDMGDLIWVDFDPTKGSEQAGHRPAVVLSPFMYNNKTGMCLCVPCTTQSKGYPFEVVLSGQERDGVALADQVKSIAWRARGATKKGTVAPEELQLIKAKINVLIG
The assay can be described thus: fluorescent RNA oligo signal without MazF, dose response, counter-screen for MazEF activator project, biochemical, fluorescence, single-stranded RNase substrate (AID 588502). It is filed as functional.

For assay [10], the target named is Benomyl/methotrexate resistance protein (Candida albicans, UniProt P28873). The assay can be described thus: CaMdr1 efflux pump inhibitor potency, dose response, singleplex, Cherry Pick1 hits (AID 588608). It is filed as functional.
In assay [11] the target is T3, Endoribonuclease toxin MazF. As to the kind of experiment: MazF toxin RNase activators, dose response, biochemical, fluorescence, single-stranded RNA substrate, uHTS hits (AID 588481). Format: functional.
Assay [12] can be described thus: cytotoxicity toward NIH3T3 fibroblasts, dose response, counter-screen, cell-based, ATP luminescence, mouse fibroblasts (AID 2010).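 Note: cells exposed to compound for about 90 hours before reading.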 It is filed as functional.
Assay [13] is described as follows: inhibitors of intracellular T. cruzi replication, confirmation, NIH3T3 host cells, beta-gal luminescence (AID 2044).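 Note: intracellular parasites grown in NIH/3T3 mouse fibroblasts as host cells; luminescent beta-galactosidase reporter signal from transgenic T. cruzi replicating inside host cells; inhibitors lower the luminescence signal.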 Format: functional, cell-based.
Assay [14] can be described thus: ARNT/TACC3 interaction disruptors, potency, confirmation, biochemical, AlphaScreen, cherry-picked samples (AID 651703).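 Note: His-tagged ARNT PAS-B domain paired with GST-TACC3 E629A dimer coactivator fragment; potency of inhibitors that break up the complex and lower AlphaScreen signal.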 It is filed as functional, Homo sapiens.
The next assay deals with T4, Caspase-6 (Homo sapiens, UniProt P55212).
T4 sequence (P55212 whole entry): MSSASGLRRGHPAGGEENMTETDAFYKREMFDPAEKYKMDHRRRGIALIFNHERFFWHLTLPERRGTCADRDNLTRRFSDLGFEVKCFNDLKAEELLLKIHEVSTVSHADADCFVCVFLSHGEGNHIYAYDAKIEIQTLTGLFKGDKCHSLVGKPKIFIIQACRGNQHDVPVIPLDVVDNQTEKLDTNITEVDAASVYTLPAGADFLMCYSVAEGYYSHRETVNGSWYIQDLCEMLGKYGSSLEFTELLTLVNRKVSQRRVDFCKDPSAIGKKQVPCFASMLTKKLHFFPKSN
As to the kind of experiment: human caspase-6 inhibitors, dose response, biochemical, VEID-R110 fluorescence, cherry-pick (AID 720632).

The target in assay [15] is T5, Carboxy-terminal domain RNA polymerase II polypeptide A small phosphatase 1 (Homo sapiens, UniProt Q9GZU7).
T5 sequence (Q9GZU7 whole entry): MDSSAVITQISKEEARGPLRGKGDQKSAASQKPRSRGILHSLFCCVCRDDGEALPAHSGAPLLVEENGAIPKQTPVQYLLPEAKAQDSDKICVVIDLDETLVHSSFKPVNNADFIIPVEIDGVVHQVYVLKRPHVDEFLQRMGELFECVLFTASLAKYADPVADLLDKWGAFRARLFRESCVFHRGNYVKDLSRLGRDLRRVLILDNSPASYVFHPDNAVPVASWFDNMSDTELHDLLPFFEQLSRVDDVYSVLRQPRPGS
The assay can be described thus: inhibitors of CTDSP1, concentration-response testing, biochemical assay, absorbance-based, actives from ultra-high-throughput screening (AID 540297). It is filed as functional.

The nature of assay [16]: AlphaScreen signal interference compounds, dose response, artefact control for ARNT-TACC3 interaction inhibitor project, biochemical, luminescence, cherry-pick (AID 651705).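 Note: AlphaScreen bead proximity signal that flags compounds interfering with the detection technology; potency reflects signal decrease which marks the compound as an assay artifact.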 Format: functional.

Activity calls are given as the source filed them.

T2 sequence (P10145 whole entry): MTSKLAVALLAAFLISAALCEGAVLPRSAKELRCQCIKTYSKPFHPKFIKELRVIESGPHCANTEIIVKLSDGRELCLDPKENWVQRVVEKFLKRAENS
Chain of Beta-galactosidase (Q8VNN2 whole entry): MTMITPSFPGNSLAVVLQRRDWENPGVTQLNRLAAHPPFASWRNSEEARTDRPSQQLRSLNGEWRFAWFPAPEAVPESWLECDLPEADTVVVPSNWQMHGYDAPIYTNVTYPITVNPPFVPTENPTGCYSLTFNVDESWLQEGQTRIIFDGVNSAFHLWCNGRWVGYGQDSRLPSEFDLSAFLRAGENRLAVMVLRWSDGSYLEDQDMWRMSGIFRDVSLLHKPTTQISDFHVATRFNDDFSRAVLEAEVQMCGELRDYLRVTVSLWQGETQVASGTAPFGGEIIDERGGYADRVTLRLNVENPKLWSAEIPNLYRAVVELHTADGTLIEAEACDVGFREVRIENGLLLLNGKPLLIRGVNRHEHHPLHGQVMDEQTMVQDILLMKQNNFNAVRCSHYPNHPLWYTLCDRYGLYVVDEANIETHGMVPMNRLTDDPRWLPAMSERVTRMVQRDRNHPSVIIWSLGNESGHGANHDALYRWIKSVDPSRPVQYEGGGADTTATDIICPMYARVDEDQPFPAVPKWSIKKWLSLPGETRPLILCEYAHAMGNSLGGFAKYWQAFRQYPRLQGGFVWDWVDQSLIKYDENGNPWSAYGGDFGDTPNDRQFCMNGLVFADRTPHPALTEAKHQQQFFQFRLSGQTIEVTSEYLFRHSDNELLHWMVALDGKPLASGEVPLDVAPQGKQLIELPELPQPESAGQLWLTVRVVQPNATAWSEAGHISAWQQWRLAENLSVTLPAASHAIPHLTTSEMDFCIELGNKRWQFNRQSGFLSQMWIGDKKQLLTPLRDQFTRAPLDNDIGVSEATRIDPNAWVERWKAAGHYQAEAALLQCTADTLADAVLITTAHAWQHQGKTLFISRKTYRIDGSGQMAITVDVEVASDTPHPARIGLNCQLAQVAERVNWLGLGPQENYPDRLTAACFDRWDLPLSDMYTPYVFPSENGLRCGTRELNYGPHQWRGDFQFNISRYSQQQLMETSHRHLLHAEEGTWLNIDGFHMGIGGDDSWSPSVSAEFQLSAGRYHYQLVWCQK
Chain of Tyrosine-protein phosphatase non-receptor type 5 (P54829 whole entry): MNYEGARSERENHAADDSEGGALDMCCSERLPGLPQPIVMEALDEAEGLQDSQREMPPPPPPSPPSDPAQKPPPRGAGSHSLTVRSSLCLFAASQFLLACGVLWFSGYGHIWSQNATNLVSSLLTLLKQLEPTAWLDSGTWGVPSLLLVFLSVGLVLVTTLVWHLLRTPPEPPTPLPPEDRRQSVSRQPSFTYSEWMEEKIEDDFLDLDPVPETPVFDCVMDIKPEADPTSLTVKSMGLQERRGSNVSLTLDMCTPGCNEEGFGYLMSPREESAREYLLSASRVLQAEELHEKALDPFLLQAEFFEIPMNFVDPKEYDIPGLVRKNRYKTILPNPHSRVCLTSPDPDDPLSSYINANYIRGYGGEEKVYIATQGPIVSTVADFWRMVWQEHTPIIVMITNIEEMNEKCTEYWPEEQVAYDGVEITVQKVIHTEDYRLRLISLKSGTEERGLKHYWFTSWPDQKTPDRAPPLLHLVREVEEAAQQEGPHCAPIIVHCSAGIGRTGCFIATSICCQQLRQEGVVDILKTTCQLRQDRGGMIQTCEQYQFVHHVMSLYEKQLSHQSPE
Chain of Dual specificity protein phosphatase 3 (P51452 whole entry): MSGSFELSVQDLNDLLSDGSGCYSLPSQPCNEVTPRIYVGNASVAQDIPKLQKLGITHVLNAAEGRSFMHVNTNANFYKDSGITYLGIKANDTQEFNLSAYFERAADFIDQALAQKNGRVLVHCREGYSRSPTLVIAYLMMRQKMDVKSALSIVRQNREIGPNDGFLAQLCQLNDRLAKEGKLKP
Chain of Tyrosine-protein phosphatase non-receptor type 11 (Q06124 whole entry): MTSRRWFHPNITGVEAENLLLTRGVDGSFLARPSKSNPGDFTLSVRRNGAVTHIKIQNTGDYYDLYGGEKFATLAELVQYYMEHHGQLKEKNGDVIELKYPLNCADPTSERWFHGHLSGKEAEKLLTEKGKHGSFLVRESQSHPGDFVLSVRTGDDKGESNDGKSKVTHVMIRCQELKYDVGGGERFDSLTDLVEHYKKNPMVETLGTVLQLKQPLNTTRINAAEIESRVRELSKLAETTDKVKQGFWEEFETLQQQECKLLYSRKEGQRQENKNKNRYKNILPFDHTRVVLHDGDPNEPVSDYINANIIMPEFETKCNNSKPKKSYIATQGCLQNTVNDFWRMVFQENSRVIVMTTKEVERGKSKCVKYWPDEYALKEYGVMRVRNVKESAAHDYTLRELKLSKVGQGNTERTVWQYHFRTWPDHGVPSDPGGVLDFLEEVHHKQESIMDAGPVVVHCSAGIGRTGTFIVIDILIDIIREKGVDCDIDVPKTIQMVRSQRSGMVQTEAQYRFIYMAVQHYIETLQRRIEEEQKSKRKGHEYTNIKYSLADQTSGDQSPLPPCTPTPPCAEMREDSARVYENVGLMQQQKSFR
Chain of Botulinum neurotoxin type F (P30996 1-436 limits assumed): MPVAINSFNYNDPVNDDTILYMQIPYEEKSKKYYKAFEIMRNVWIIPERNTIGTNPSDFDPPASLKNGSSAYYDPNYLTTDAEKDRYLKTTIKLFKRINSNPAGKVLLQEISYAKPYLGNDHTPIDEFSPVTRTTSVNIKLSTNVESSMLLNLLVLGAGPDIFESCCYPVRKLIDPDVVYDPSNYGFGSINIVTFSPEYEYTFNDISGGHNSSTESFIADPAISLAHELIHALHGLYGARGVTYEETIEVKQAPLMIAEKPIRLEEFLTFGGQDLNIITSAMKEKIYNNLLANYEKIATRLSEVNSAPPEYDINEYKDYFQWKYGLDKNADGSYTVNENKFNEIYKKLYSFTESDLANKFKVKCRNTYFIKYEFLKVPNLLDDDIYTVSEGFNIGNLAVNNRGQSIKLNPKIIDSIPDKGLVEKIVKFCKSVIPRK
Chain of Benomyl/methotrexate resistance protein (P28873 whole entry): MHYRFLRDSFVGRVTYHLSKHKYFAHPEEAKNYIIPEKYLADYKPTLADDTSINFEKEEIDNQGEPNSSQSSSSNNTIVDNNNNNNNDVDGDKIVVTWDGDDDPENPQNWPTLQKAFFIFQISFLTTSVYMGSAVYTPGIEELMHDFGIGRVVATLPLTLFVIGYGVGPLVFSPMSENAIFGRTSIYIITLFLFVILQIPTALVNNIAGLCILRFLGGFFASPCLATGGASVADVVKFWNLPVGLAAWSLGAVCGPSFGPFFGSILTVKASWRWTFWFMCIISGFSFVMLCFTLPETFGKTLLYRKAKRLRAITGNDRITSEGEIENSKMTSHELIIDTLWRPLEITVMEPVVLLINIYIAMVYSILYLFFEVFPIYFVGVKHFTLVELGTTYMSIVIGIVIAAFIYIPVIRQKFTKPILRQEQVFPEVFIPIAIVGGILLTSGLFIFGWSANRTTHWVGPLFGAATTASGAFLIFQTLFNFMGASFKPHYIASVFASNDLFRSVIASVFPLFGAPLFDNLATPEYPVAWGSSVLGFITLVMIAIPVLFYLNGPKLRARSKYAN

Regarding `O=C(/C=C/c1ccc(Cl)cc1)N1CCN(Cc2ccccc2)CC1`, the IC50 at Beta-galactosidase was > 80 µM (inactive).
Regarding `N#CC(C#N)=NNc1ccc([N+](=O)[O-])cc1`, the figures for the EC50 (in assay [1]; on Streptokinase A; in the assay on Streptococcus) were 3.82 µM (active), > 150 µM (not active) and 9.99 µM (active), respectively. The IC50 in [2] is 32.3 µM (inactive).
Take `Cc1ccc(NC(=O)CN2C(=O)S/C(=C\c3ccc(OCC(=O)O)c(Br)c3)C2=O)cc1`: the IC50 was > 80 µM (inactive) in assay [3], 6.33 µM (active) in assay [4] and 6.91 µM (active) in assay [5].
As for `O=C(Nc1ccc(C(=O)N2CCOCC2)cc1)Nc1cccc(C(F)(F)F)c1`, the IC50 is 41.9 µM (inactive) at Interleukin-8 [6] and > 79 µM (inactive) at Interleukin-8 [7]. Also, the AC50 with HEK293 was 3.04 µM (active).
`Cc1cc2nc(-c3cccc(Br)c3)c(Cc3cccc(Cl)c3)n2c(C)c1Br`: the EC50 in assay [8] was > 20 µM (inactive).
Consider `COc1ccc(/C=C2\SC(c3ccc(C)cc3)=NC2=O)cc1OC`, for which the EC50 in assay [9] is > 99 µM (inactive); in assay [10] it was 5.12 µM (active); in assay [11], > 99 µM (inactive).
As to `COc1ccc(CC(=O)Nc2ncc([N+](=O)[O-])s2)cc1OC`, the EC50 is > 60 µM (not active) in assay [12] and 1.27 µM (active) in [13]. The AC50 in [14] is 112 µM (active); on Caspase-6, 2.89 µM (active); in [16], 117 µM (active). The IC50 in assay [15] was 3.21 µM (active).

(Values after ChEMBL document CHEMBL1201862, “PubChem BioAssay data set” (2004).)
